Results taken from patent US5652220A, “Encapsulation of TRH or its analog” (Takeda Chemical Industries, Ltd., priority 1986, dated 1997).

How the values were obtained:
[1] = drug trapping percentage into microcapsules (amount actually incorporated vs amount charged); assay type: physicochemical; details: comparison microcapsules, 53 mg TRH, w/o emulsion viscosity about 2,000 cp
Method: (§1) The microcapsules obtained by charging TRH in an amount of 1-20% based on PLGA and following the above procedure were tested for drug trapping percentage (percentage of amount actually incorporated into microcapsules to amount charged) and further assayed, in an in vitro dissolution test, for residual TRH in microcapsules after one day of standing in phoshpate buffer (pH 7.0) at 37° C.
(§2) For these microcapsules, the percentage of trapping of CG-3509 was determined and the residual CG-3509 in the microcapsules after one-day standing in phosphate buffer (pH 7.0) at 37° C. was assayed in an in vitro dissolution test.

[2] = in vitro dissolution test: residual drug in microcapsules standing in phosphate buffer (pH 7.0) at 37° C.; assay type: physicochemical
Method: as §1
(b) 1/30M phosphate buffer (pH 7.0), 37° C. (mean for n = 2).
The microcapsules obtained by the procedure of Example 1 were examined for in vitro drug release property and for in vivo drug release property after subcutaneous administration to rats (the residual drug amount in microcapsules at the site of administration was determined).
as §2

trapping percentage ([1]; 4 g PLGA, TRH to PLGA 1.33%): 77% | trapping percentage ([1]; 6 g PLGA, TRH to PLGA 0.88%): 98% | first day release ([2]; Example 2, TRH 2% relative to PLGA, free form or strong acid added): 15.8% | initial release ([2]; Example 2, acetic acid added, TRH 2% relative to PLGA): 33.2% | release of the first day ([2]; TRH concentration relative to PLGA 1%): 65.7% | initial release ([2]; acetic acid added, TRH 5% relative to PLGA): 22.6% | initial release ([2]; comparison microcapsules, TRH to PLGA 0.88%): 67% | initial release ([2]; comparison microcapsules, TRH to PLGA 1.33%): 71%
SMILES: NC(=O)[C@@H]1CCCN1C(=O)[C@H](Cc1cnc[nH]1)NC(=O)[C@@H]1CCC(=O)N1 [TRH, pyroGlu-His-ProNH2]
